The assay has as its target T1, AR protein (Homo sapiens, UniProt P10275, T878A).
T1 construct: host or cells: LNCaP FGC
T1 sequence (P10275 1-920 T878A): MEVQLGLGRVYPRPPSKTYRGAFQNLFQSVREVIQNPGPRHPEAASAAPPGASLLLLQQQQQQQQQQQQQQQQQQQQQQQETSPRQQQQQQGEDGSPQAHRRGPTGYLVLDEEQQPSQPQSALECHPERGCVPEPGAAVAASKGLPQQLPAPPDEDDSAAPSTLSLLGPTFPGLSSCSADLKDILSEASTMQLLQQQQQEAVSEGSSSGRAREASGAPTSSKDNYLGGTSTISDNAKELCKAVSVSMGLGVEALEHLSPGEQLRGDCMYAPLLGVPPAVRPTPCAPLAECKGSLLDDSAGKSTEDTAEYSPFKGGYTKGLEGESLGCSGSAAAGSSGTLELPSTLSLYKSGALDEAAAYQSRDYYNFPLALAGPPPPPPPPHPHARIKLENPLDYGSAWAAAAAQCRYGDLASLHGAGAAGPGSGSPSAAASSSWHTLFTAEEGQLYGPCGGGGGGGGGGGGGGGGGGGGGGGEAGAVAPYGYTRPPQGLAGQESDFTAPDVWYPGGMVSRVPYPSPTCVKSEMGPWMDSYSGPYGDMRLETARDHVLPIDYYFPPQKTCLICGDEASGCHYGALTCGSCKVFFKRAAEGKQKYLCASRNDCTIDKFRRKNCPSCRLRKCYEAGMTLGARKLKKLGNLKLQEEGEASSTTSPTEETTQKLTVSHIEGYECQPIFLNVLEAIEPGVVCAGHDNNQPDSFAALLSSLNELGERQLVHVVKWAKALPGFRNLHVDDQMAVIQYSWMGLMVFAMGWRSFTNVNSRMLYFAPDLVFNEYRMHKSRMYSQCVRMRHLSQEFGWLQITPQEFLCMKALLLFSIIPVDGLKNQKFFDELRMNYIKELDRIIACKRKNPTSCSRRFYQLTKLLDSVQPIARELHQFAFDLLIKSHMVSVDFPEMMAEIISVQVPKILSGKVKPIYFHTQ
Briefly: Degradation of AR protein in LNCAP cells (Western blot, 8 h). The following applies: LNCaP FGC cells. Format: cell-based. The procedure:
After 8 h, the culture medium was discarded, and the cells were washed with PBS. After the cells were washed with PBS, RIPA lysis buffer containing 1% Protease Inhibitor Cocktail was added, and the total protein extract was obtained after lysis and centrifugation, and the protein concentration in the extract was detected by BCA method. Protein electrophoresis was carried out by SDS-PAGE, after which the proteins were transferred to PVDF (Millipore Sigma Catalog No. PSRP010R5) membrane by 100V constant voltage electrotransfer for 60 min, and the PVDF membrane was placed in 1×TBST solution with 5% milk and blocked at room temperature for 1h. […] The primary antibody solution was discarded, and the PVDF membrane was washed three times with 1× TBST for 5 min each. […] The secondary antibody solution was discarded, and the PVDF membrane was washed three times with 1× TBST for 5 min each. Western membrane imaging was performed using a dual-color infrared laser imaging system (Licor catalog number Odyssey CLX). Bands were analyzed in grayscale using the software Image Studio. For each sample, GAPDH protein bands were detected as internal reference. The degradation rates of the AR protein for the compounds and positive control sample were calculated based on the grayscale of the protein bands.

Regarding `COc1cc(O[C@H]2C(C)(C)[C@H](NC(=O)c3ccc(N4CCC(CN5CCC6(CC5)COc5c6ccc6c5C(=O)N(C5CCC(=O)NC5=O)C6)(OC)CC4)cc3)C2(C)C)ccc1C#N` (relative stereo) [2-293], the “Degradation rates of the AR protein in LNCAP cells, 10 nM (%)” value (“Degradation rates … 10 nM (%)” below) is 62% and the “Degradation rates of the AR protein in LNCAP cells, 100 nM (%)” value (“Degradation rates … 100 nM (%)” below) was found to be 82%.
On the same counts, the results for `C[C@H]1CC2(CCN(c3ccc(N4CCC(CN5CCC6(CC5)COc5c6ccc6c5C(=O)N(C5CCC(=O)NC5=O)C6)CC4)cc3)CC2)CN1c1ccc(C#N)c(Cl)c1` (stereo partly drawn) [2-103] are 55% and 79%.
`COc1cc(O[C@H]2CC[C@H](NC(=O)c3ccc(N4CCC(F)(CN5CCC6(CC5)COc5c6ccc6c5C(=O)N(C5CCC(=O)NC5=O)C6)CC4)nn3)CC2)ccc1C#N` (relative stereo) [2-316]: the “Degradation rates … 10 nM (%)” value is on record as 49% and the “Degradation rates … 100 nM (%)” value is 61%.
In the same order, the values of `COc1cc(O[C@H]2C(C)(C)[C@H](NC(=O)c3ccc(N4CCC(CN5CCC6(CC5)COc5c6ccc6c5C(=O)N(C5CCC(=O)NC5=O)C6)CC4)cc3)C2(C)C)ccc1C#N` (relative stereo) [2-318] are 58% and 73%.
On the same counts, the results for `CC1(CN2CCC3(CC2)COc2c3ccc3c2C(=O)N(C2CCC(=O)NC2=O)C3)CCN(c2ccc(C(=O)N[C@H]3CC[C@H](Oc4ccc(C#N)c(Cl)c4)CC3)nn2)CC1` (relative stereo) [2-262] are 47% and 68%.
In the same order, the values of `COc1cc(O[C@H]2C(C)(C)[C@H](NC(=O)c3ccc(N4CCC(C)(CN5CCC6(CC5)COc5c6ccc6c5C(=O)N(C5CCC(=O)NC5=O)C6)CC4)cc3)C2(C)C)ccc1C#N` (relative stereo) [2-292] are 43% and 78%.
For the compound `COc1cc(O[C@H]2CC[C@H](NC(=O)c3ccc(N4CCC(C)(CN5CCC6(CC5)COc5c6ccc6c5C(=O)N(C5CCC(=O)NC5=O)C6)CC4)nn3)CC2)ccc1C#N` (relative stereo) [2-261], the “Degradation rates … 10 nM (%)” value turned out to be 53% and the “Degradation rates … 100 nM (%)” value is 70%.
In the case of `N#Cc1ccc(O[C@H]2CC[C@H](NC(=O)c3ccc(N4CCC(F)(CN5CCC6(CC5)COc5c6ccc6c5C(=O)N(C5CCC(=O)NC5=O)C6)CC4)nn3)CC2)cc1Cl` (relative stereo) [2-315], the “Degradation rates … 10 nM (%)” value came to 33% and the “Degradation rates … 100 nM (%)” value is reported as 44%.
On the same counts, the results for `COC1(CN2CCC3(CC2)COc2c3ccc3c2C(=O)N(C2CCC(=O)NC2=O)C3)CCN(c2ccc(C(=O)N[C@H]3CC[C@H](Oc4ccc(C#N)c(Cl)c4)CC3)nn2)CC1` (relative stereo) [2-263] are 38% and 69%.

Source of the values: patent publication EP4656642A1, “ESTROGEN RECEPTOR PROTEOLYSIS TARGETING CHIMERA COMPOUND AND USE THEREOF” (GAN & LEE PHARM CO., LTD, priority 2023, dated 2024).
